Data as given in patent US20090270352A1, “Tenofovir Disoproxil Hemi-Fumaric Acid Co-Crystal” (ULTIMORPHIX TECHNOLOGIES B.V., priority 2007, published 2009).
Counter-ions that a name gives are not always drawn.

Experiment: Dynamic Vapour Sorption (DVS) moisture sorption isotherm
Type: physicochemical
Settings: for total uptake of water vapours: DVS, 25° C., relative humidity 0% to 95% in steps of 5%, 1 h per step, sorption-desorption cycle
Procedure: Moisture sorption isotherms were measured using a DVS-1 system of Surface Measurement Systems (London, UK). Differences in moisture uptake of various forms of a solid material indicate differences in the relative stabilities of the various solid forms for increasing relative humidity. The experiment was carried out at a constant temperature of 25° C.
A sample of about 11.5 mg of form TDFA 2:1 was spread in the DVS pan. The sample was dried at 0% RH for 7 h. Subsequently the relative humidity of the chamber was increased in steps of 5% units from 0% to 95% in order to monitor the sorption of water vapours. The samples remained in each of the steps for 1 h. Following, desorption was monitored by decreasing the relative humidity to 0% in steps of 5% units and remaining at each step for 1 h. The total uptake of water vapours was about 0.8%, which is line with the industry standard for hygroscopicity. In a similar DVS experiment using the starting material as purchased, the total vapour intake was about 4%, which is undesirable in formulation and requires additional measures.

total uptake of water vapours | changes in the structure by XRPD at the end of the DVS experiment (solid material measured by XRPD after the DVS sorption-desorption cycle (FIG. 4)) | Compound
about 0.8% | no any changes in the structure | CC(C)OC(=O)OCOP(=O)(CO[C@H](C)Cn1cnc2c(N)ncnc21)OCOC(=O)OC(C)C.CC(C)OC(=O)OCOP(=O)(CO[C@H](C)Cn1cnc2c(N)ncnc21)OCOC(=O)OC(C)C.O=C(O)/C=C/C(=O)O [TDFA 2:1, co-crystal of tenofovir disoproxil and fumaric acid in a 2:1 molar ratio]
about 4% | – | CC(C)OC(=O)OCOP(=O)(CO[C@H](C)Cn1cnc2c(N)ncnc21)OCOC(=O)OC(C)C [starting material, 9-[(R)-2-[[bis[[(isopropoxycarbonyl)oxy]methoxy]phosphinyl]-methoxy]propyl] adenine fumarate (1:1), reference compound]
